This note sets out measurements from paper PMC10770036, “Novel dual inhibitors of PARP and HDAC induce intratumoral STING-mediated antitumor immunity in triple-negative breast cancer” (Cell Death & Disease, 2024).

What is called IC50 is the concentration that inhibits the measured activity by half.

One assay has as its target T1, recombinant HDAC6 (Homo sapiens, UniProt Q9UBN7).
T1 construct: purchased BPS Bioscience
T1 sequence (Q9UBN7 1-1215): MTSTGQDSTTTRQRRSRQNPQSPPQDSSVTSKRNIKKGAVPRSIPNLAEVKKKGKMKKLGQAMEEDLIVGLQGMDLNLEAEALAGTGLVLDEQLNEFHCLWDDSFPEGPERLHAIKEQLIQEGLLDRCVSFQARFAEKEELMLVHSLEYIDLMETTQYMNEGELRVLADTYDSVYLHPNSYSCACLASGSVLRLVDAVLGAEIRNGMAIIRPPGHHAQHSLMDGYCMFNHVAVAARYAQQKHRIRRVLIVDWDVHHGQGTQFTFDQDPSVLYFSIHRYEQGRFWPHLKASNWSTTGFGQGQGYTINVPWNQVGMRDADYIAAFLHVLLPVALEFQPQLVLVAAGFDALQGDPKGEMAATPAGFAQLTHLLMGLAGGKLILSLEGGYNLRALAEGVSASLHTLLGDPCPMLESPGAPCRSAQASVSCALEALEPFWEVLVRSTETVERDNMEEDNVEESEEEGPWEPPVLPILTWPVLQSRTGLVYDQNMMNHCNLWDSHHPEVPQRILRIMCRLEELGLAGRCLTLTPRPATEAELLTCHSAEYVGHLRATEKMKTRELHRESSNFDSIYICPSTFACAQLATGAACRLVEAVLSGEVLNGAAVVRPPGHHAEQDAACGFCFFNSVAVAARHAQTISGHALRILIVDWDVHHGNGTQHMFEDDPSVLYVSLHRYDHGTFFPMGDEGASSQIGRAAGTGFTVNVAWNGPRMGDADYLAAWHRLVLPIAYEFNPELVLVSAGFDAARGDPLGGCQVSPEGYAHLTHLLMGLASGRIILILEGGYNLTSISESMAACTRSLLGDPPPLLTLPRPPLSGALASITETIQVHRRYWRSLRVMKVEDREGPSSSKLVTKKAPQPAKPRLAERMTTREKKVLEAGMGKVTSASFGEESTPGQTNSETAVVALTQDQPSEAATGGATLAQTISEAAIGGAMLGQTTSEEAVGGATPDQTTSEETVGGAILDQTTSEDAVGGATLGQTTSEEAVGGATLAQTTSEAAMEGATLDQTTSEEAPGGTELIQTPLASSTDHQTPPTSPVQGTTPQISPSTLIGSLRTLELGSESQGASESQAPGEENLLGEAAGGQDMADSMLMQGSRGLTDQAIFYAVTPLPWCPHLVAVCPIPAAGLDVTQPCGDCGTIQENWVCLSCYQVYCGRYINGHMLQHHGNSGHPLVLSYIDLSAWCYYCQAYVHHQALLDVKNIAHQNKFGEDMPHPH
The assay can be described thus: HDAC6 inhibition assay (Ac-peptide-AMC fluorescence). In kind it is biochemical. As to the method: (§1) The in vitro HDAC inhibition assays were carried out by Sundia MediTech Co. Ltd. in Shanghai, China. […] Reactions were stopped with trypsin, and the samples were incubated for another 90 min at 37 °C. […] IC50 values were obtained using GraphPad Prism software.

In a further assay the target is T2, recombinant HDAC1 (Homo sapiens, UniProt Q13547).
T2 construct: purchased Active Motif
Description: HDAC1 inhibition assay (Ac-peptide-AMC fluorescence). In kind it is biochemical. The procedure: as §1

For another assay, the system named is MDA-MB-231 cells. Description: MTT cell viability assay, MDA-MB-231. The conditions noted are these: Homo sapiens, MDA-MB-231, 72 h, read-out: IC50 MDA-MB-231.
A further assay has as its target T3, PARP2 (Homo sapiens, UniProt Q9UGN5).
T3 construct: purchased BPS Bioscience 80581
The assay can be described thus: PARP2 enzymatic inhibition assay (PARP2 Colorimetric Assay Kit). In kind it is biochemical. As to the method:
(§2) Briefly, the 1× histone mixture was added to each well and incubated overnight at 4 °C. Each well was washed three times with 200 µL 1× TBST buffer and filled with 200 µL Blocking buffer at room temperature for 90 min. Then, each well was filled with 25 µL of PARP master mixture (5 μL activated DNA + 2.5 μL 10× PARP Assay mixture + 2.5 μL 10× PARP buffer + 15 μL distilled water). Next, 5 µL of the compound of different concentrations was added to each well, and PARP enzyme was added and incubated at room temperature for 1 h. Next, streptavidin HRP solution was added and incubated at room temperature for 30 min. After adding 100 µL of colorimetric HRP substrate to each well, the plate was incubated until a blue color developed in the positive well, which contained PARP enzyme without inhibitors. The reaction was then quenched with 2 M sulfuric acid, and absorbance at 450 nm was measured using a microplate reader (BioTek, Winooski, VT, USA). After calculating the inhibition rate, the IC50 value was determined.

The target in a further assay is T4, PARP1 (Homo sapiens, UniProt P09874).
T4 construct: purchased BPS Bioscience 80580
The assay can be described thus: PARP1 enzymatic inhibition assay (PARP1 Colorimetric Assay Kit). The assay is classed as biochemical. The procedure:
as §2

A further assay deals with MCF-10A cells. Description: MTT cell viability assay, MCF-10A. The note with it: Homo sapiens, 72 h, read-out: IC50 MCF-10A. In general terms: Tetrazolium assays rely on reduction of a dye to a coloured formazan, in cell work by metabolically active cells.
Another assay concerns MCF-7 cells. The assay can be described thus: MTT cell viability assay, MCF-7. The conditions noted are these: Homo sapiens, MCF7, 72 h, read-out: IC50 MCF-7.
The next assay has as its system MDA-MB-436 cells. Description: MTT cell viability assay, MDA-MB-436. The note with it: Homo sapiens, MDA-MB-436, 72 h, read-out: IC50 MDA-MB-436.
The subject of another assay is MDA-MB-468 cells. The assay can be described thus: MTT cell viability assay, MDA-MB-468. The conditions noted are these: Homo sapiens, MDA-MB-468, 72 h, read-out: IC50 MDA-MB-468.
The subject of a further assay is RAD51. The assay can be described thus: Western blot of RAD51 expression in TNBC cells. The assay is classed as cell-based, human. The note with it: alone, 24 h, TNBC cell lines. The procedure:
Western blot analysis was performed as previously described, and all western blot analyses were performed at least three times.
Western blot analysis was performed as previously described. Briefly, whole cell or tissue lysates were prepared using ice-cold Nonidet P-40 buffer mixed with protease and phosphatase inhibitors (Roche, IN, USA) and centrifuged at 14,000 × g at 4 °C for 10 min. The protein lysates were fractionated by sodium dodecyl sulfate–polyacrylamide gel electrophoresis (SDS–PAGE) and transferred to polyvinylidene fluoride (PVDF) membranes (Merck, Darmstadt, Germany). Membranes were incubated in 1× TBST buffer containing 5% nonfat powdered milk at room temperature for 2 h. The indicated primary antibody was incubated with PVDF membranes, followed by a washing step using 1× TBST and a secondary antibody conjugated to HRP. Signal detection was carried out using the Western ECL Substrate kit (Bio-Rad, Hercules, CA, USA). […]
Background: In western blotting, separated proteins are transferred to a membrane and probed.

T2 sequence (Q13547 whole entry): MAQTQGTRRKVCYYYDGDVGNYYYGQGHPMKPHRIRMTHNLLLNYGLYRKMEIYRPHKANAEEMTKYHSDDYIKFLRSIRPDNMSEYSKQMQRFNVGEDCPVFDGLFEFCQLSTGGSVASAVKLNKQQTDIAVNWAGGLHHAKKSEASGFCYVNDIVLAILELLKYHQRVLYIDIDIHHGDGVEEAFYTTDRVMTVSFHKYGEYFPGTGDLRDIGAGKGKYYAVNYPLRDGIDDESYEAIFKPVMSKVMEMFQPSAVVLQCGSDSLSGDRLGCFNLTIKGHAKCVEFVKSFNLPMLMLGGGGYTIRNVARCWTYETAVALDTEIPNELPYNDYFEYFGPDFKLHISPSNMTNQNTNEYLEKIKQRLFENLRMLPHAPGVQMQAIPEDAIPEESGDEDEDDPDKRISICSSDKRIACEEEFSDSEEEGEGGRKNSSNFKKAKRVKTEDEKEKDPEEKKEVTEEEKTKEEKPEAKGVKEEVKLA
T4 sequence (P09874 whole entry): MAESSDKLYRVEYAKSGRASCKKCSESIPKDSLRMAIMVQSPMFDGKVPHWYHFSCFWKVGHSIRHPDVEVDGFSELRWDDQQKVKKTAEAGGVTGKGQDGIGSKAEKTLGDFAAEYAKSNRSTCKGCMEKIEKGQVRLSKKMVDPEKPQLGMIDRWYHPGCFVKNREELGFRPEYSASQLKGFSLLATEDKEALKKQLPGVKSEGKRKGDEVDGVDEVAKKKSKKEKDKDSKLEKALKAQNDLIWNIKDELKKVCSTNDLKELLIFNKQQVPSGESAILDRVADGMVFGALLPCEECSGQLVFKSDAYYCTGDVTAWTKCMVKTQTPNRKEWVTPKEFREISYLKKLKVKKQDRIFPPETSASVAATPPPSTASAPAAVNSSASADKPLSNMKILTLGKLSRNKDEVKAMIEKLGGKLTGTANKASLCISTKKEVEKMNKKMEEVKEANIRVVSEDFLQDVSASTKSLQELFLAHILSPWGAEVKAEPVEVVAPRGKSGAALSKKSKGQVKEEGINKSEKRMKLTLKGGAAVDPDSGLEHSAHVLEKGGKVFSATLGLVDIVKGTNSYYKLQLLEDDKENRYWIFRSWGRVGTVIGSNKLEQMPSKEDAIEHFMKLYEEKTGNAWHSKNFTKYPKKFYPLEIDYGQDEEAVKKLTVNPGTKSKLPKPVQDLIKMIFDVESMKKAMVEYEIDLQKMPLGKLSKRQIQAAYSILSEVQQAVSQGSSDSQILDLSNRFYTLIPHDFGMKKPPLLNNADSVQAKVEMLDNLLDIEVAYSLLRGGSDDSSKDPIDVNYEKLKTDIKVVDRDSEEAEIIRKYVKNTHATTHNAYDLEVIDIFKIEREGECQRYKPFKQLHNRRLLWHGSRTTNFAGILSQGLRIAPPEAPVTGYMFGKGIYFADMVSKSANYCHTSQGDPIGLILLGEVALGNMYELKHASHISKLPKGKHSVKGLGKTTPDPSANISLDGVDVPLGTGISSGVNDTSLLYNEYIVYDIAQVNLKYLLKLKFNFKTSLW
T3 sequence (Q9UGN5 whole entry): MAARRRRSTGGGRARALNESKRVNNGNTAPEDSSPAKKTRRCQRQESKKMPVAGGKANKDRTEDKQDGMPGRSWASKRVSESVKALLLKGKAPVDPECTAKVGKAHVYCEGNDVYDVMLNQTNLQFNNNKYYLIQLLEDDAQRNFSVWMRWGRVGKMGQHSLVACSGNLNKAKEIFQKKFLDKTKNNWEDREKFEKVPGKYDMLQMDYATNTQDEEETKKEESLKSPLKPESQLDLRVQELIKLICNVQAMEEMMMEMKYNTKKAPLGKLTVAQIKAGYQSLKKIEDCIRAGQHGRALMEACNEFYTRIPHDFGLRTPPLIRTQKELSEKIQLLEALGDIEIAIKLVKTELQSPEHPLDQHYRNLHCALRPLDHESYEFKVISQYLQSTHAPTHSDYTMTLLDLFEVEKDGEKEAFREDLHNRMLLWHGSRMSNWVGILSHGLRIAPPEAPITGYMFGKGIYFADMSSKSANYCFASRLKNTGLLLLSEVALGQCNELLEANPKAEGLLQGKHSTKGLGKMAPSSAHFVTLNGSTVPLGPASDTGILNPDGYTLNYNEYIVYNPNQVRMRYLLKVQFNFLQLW
Description for MCF-10A cells: (§3) The viability assay was measured by a 3-(4,5-dimethylthiazol-2-yl)−2,5-diphenyltetrazolium bromide (MTT) assay.
(§4) In brief, cells were seeded at a density of 6,000 cells in 96-well plates and cultured overnight. […] After aspiration of the medium, the formazan crystals were dissolved in 100 μL of DMSO. The absorbance at 490 nm was measured using a microplate reader (BioTek). All these analyses were performed at least three times.
Description for MCF-7 cells: as §3, §4
Description for MDA-MB-231 cells: as §3, §4
Description for MDA-MB-436 cells: as §3, §4
Description for MDA-MB-468 cells: as §3, §4

In the case of `Nc1ccccc1NC(=O)CCCN1CCN(C(=O)c2cc(Cc3n[nH]c(=O)c4ccccc34)ccc2F)CC1` [Compound B601], the IC50 at recombinant HDAC6 and on recombinant HDAC1 was over 10 µM throughout.
`Nc1cc(F)ccc1NC(=O)CCCN1CCN(C(=O)c2cc(Cc3n[nH]c(=O)c4ccccc34)ccc2F)CC1` [Compound B602]: the IC50 on recombinant HDAC6 and at recombinant HDAC1 was over 10 µM each time.
In the case of `Nc1cc(F)ccc1NC(=O)CCN1CCN(C(=O)c2cc(Cc3n[nH]c(=O)c4ccccc34)ccc2F)CC1` [Compound B502], the IC50 on recombinant HDAC6 and on recombinant HDAC1 was over 10 µM in each case.
In the case of `Nc1cc(F)ccc1NC(=O)Cc1ccc(CN2CCN(C(=O)c3cc(Cc4n[nH]c(=O)c5ccccc45)ccc3F)CC2)cc1` [Compound B202], the IC50 in the assay on MDA-MB-231 cells is 460 ± 120 nM; at recombinant HDAC6, over 10 µM; at PARP2, 34.2 nM; on PARP1 it was 10.3 nM; in the assay on MCF-10A cells, 9.83 ± 0.75 µM; in the assay with MCF-7 cells, 15.6 ± 3.52 µM. Moreover, the IC50 came to 650 ± 140 nM in the assay with MDA-MB-436 cells, 560 ± 100 nM in the assay on MDA-MB-468 cells and 0.16 µM at recombinant HDAC1.
Regarding `Nc1ccccc1NC(=O)/C=C/c1ccc(CN2CCN(C(=O)c3cc(Cc4n[nH]c(=O)c5ccccc45)ccc3F)CC2)cc1` [Compound B101], the IC50 is 410 ± 10 nM in the assay on MDA-MB-231 cells; over 10 µM at recombinant HDAC6; 4.08 nM against PARP2; 13.2 nM against PARP1; 1.45 ± 0.09 µM in the assay on MCF-10A cells; 3.62 ± 1.21 µM in the assay on MCF-7 cells. For the same compound, the 50% inhibitory concentration (IC50) worked out at 530 ± 80 nM in the assay with MDA-MB-436 cells, 300 ± 50 nM in the assay on MDA-MB-468 cells and 0.12 µM at recombinant HDAC1.
Take `Nc1ccccc1NC(=O)Cc1ccc(CN2CCN(C(=O)c3cc(Cc4n[nH]c(=O)c5ccccc45)ccc3F)CC2)cc1` [Compound B201]: the IC50 in the assay on MDA-MB-231 cells was 380 ± 80 nM; at recombinant HDAC6, over 10 µM; at PARP2, 13.8 nM; against PARP1, 7.55 nM; in the assay with MCF-10A cells it was 14 ± 2.45 µM; in the assay on MCF-7 cells, 5.3 ± 1.23 µM. The values for the IC50 in the assay on MDA-MB-436 cells, in the assay with MDA-MB-468 cells and at recombinant HDAC1 were 970 ± 730 nM, 1350 ± 550 nM and 0.06 µM, respectively.
As to `Nc1cc(F)ccc1NC(=O)CN1CCN(C(=O)c2cc(Cc3n[nH]c(=O)c4ccccc34)ccc2F)CC1` [Compound B402], the IC50 at recombinant HDAC6 and on recombinant HDAC1 was over 10 µM throughout.
Regarding `Nc1ccccc1NC(=O)CCc1ccc(CN2CCN(C(=O)c3cc(Cc4n[nH]c(=O)c5ccccc45)ccc3F)CC2)cc1` [Compound B301], the half-inhibitory concentration (IC50) in the assay with MDA-MB-231 cells is 1960 ± 630 nM; at recombinant HDAC6 it was over 10 µM; at PARP2, 70.4 nM; on PARP1 it was 11.4 nM; in the assay with MCF-10A cells, 30.1 ± 9.8 µM; in the assay on MCF-7 cells, 3.53 ± 1.11 µM. For the same compound, the IC50 was 1730 ± 820 nM in the assay with MDA-MB-436 cells, 1750 ± 370 nM in the assay on MDA-MB-468 cells and over 10 µM at recombinant HDAC1.
`Nc1cc(F)ccc1NC(=O)c1ccc(CNC(=O)/C=C/c2cccnc2)cc1` [Chidamide, chidamide, reference compound]: the RAD51 expression entry in the assay with RAD51 is “reduced the expression of RAD51”. The half-maximal inhibitory concentration (IC50) in the assay on MDA-MB-231 cells is 2340 ± 920 nM; in the assay on MCF-10A cells it was over 50 µM; in the assay with MCF-7 cells, 4.6 ± 0.78 µM; in the assay with MDA-MB-436 cells, 4150 ± 920 nM; in the assay on MDA-MB-468 cells it was 750 ± 220 nM.
`Nc1ccccc1NC(=O)CN1CCN(C(=O)c2cc(Cc3n[nH]c(=O)c4ccccc34)ccc2F)CC1` [Compound B401]: the IC50 at recombinant HDAC6 and on recombinant HDAC1 was over 10 µM each time.
With `Nc1ccccc1NC(=O)CCN1CCN(C(=O)c2cc(Cc3n[nH]c(=O)c4ccccc34)ccc2F)CC1` [Compound B501], the 50% inhibitory concentration (IC50) at recombinant HDAC6 and on recombinant HDAC1 was over 10 µM each time.
